The text below walks through data of ChEMBL document CHEMBL1201862, “PubChem BioAssay data set” (2004).

A word on the GI50: it is the concentration that inhibits growth by half.

Several values for one entry are separate records, joined by “and”; a condition that tells them apart may be missing. Identical values can stand only once.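 Cultured in 96-well plates, cells were exposed to test compound for 48 hours across five concentrations. GI50 is the concentration that inhibits growth by half.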 Activity calls are given as the source filed them. Rule as the data show it: active = GI50 up to about 1.1 µM and inactive = higher.

Some test systems named below: HCT-15; SNB-75; SK-MEL-28; SF-539; Malme-3M; EKVX; NCI-H522; UACC-62; HCC 2998; SN12C; HL-60; DMS-273; SR; NCI-H23; SNB-19; SW-620; NCI-H460; PC-3; MDA-N; BT-549.
Holding throughout (test): DTP human tumour cell line panel, 48 h

For `Nc1nc2c3nc(Nc4ccccc4)sc3nc(=O)n2c2sc(Nc3ccccc3)nc12`, the GI50 was more than 100 µM with HCT-15; > 100 µM (inactive) in the test with SNB-75; > 100 µM (inactive) with SK-MEL-28; > 100 µM (inactive) in the test on SF-539; > 100 µM (inactive) with Malme-3M; > 100 µM (inactive) in the test on EKVX. Besides, the GI50 with NCI-H522, with UACC-62, in the test with HCC 2998, in the test with SN12C, with HL-60 and with DMS-273 was > 100 µM (inactive) in each case. In addition, the GI50 in the test with SR, with NCI-H23, with SNB-19 and with SW-620 was > 100 µM (inactive) in each case.
For `O=C1C=Cc2c(-c3ccccc3)oc3cccc1c23`, the GI50 is 5.97 µM with HCT-15; 4.33 µM (inactive) in the test with SNB-75; 56.9 µM (inactive) with SK-MEL-28; 12 µM (inactive) in the test with SF-539; 37 µM (inactive) with Malme-3M; 3.19 µM (inactive) with EKVX. In addition, the GI50 with NCI-H522 is 15.3 µM (inactive); in the test on UACC-62, 11.2 µM (inactive); in the test on HCC 2998, 25.6 µM (inactive); with NCI-H460, 5.07 µM (inactive); with SN12C it was 9.82 µM (inactive); in the test with HL-60 it was 9.12 µM (inactive). Moreover, the GI50 with DMS-273 is 5.98 µM (inactive); in the test on SR, 10.1 µM (inactive); with NCI-H23, 16.4 µM (inactive); in the test on SNB-19 it was 24 µM (inactive); with SW-620, 18.7 µM (inactive).
Turning to `COc1c(-c2ccccc2)nc2ccc(Oc3ccccc3)nn12`, the GI50 in the test on HCT-15 was 17.7 µM; in the test with SNB-75, > 57.5 µM (inactive); in the test with SK-MEL-28, > 51.8 µM (inactive); in the test on SF-539 it was > 59.4 µM (inactive); with Malme-3M it was 37.8 µM (inactive); in the test with EKVX it was > 100 µM (inactive). For the same molecule, the GI50 with NCI-H522 is > 100 µM (inactive); with UACC-62 it was > 69.7 µM (inactive); with HCC 2998, > 64.9 µM (inactive); in the test with NCI-H460, 36.6 µM (inactive); with SN12C it was > 56.6 µM (inactive); in the test with HL-60, 7.33 µM (inactive). The GI50 was > 57.1 µM (inactive) in the test on DMS-273; 13.8 µM (inactive) in the test with SR; > 49 µM (inactive) in the test with NCI-H23; > 84.5 µM (inactive) with SNB-19; > 75.7 µM (inactive) in the test with SW-620.
As for `C1CCN(c2nc(=[N+]3CCCCC3)ss2)CC1`, the GI50 in the test with HCT-15 is more than 100 µM; in the test with SNB-75, > 100 µM (inactive); in the test on SK-MEL-28 it was 84.9 µM (inactive); in the test with SF-539, > 100 µM (inactive); in the test on Malme-3M, > 100 µM (inactive); in the test with EKVX, > 100 µM (inactive). Also, the GI50 with NCI-H522 is > 100 µM (inactive); with UACC-62 it was > 100 µM (inactive); in the test with HCC 2998, > 100 µM (inactive); with NCI-H460, 48.8 µM (inactive); with SN12C it was > 100 µM (inactive); in the test on HL-60 it was > 100 µM (inactive). The GI50 with DMS-273 is > 100 µM (inactive); in the test with SR it was > 100 µM (inactive); in the test on NCI-H23, 73.3 µM (inactive); in the test with SNB-19 it was > 100 µM (inactive); with SW-620 it was > 100 µM (inactive).
For `COC(=O)[C@@H]1[C@H](O)[C@H](C)[C@H](O)[C@@](C)(O)/C=C\C=C(\C)C(=O)Nc2c(C)c(OC(C)=O)c3c(c2O)C(=O)C(C)=C2OCOC(=C23)/C(C)=C/[C@@](C)(O)[C@H](O)[C@@H](C)[C@H]1OC(C)=O`, the GI50 was 26.9 µM in the test on HCT-15; > 66.8 µM (inactive) in the test on SNB-75; > 100 µM (inactive) in the test on SK-MEL-28; > 100 µM (inactive) and 50.7 µM (inactive) in the test on SF-539; 31.3 µM (inactive) in the test on Malme-3M; 78.2 µM (inactive) with EKVX. Besides, the GI50 with NCI-H522 is 47.2 µM (inactive) and 21.5 µM (inactive); in the test with UACC-62, 41.3 µM (inactive); in the test with HCC 2998 it was 21.8 µM (inactive); with NCI-H460 it was 49 µM (inactive); in the test on SN12C, 43.6 µM (inactive); in the test with HL-60, 20.5 µM (inactive). Moreover, the GI50 is > 100 µM (inactive) and 60 µM (inactive) with DMS-273; > 66.8 µM (inactive) with PC-3; 27.4 µM (inactive) in the test on NCI-H23; > 100 µM (inactive) and 91.4 µM (inactive) with SNB-19; 9.91 µM (inactive) and 59 µM (inactive) in the test on SW-620.
Take `CCOc1ccc(/N=N/c2c(-c3ccccc3)nn(C(=O)CC(=O)Nc3ccccc3Cl)c2-c2ccccc2)cc1`: the GI50 with SNB-75 was 21.2 µM (inactive); in the test with SK-MEL-28, 27.7 µM (inactive); in the test with SF-539, 58.3 µM (inactive); in the test on Malme-3M, > 100 µM (inactive); with EKVX, 44 µM (inactive); with NCI-H522, 78 µM (inactive). Also, the GI50 with UACC-62 was 77.1 µM (inactive); with HCC 2998 it was 41.5 µM (inactive); with NCI-H460, 46.5 µM (inactive); in the test with SN12C it was > 100 µM (inactive); in the test with HL-60, 25.6 µM (inactive); in the test with DMS-273 it was 18.3 µM (inactive). Further, the GI50 in the test on SR was 72.8 µM (inactive); with NCI-H23, 56.9 µM (inactive); in the test with SNB-19, > 100 µM (inactive); in the test on SW-620, > 100 µM (inactive).
For the molecule `Cc1ccccc1NC(=O)CC1C(=O)Nc2ccccc2[S+]1[O-]` (stereo unspecified), the GI50 was more than 100 µM with HCT-15; 25.6 µM (inactive) with SNB-75; > 100 µM (inactive) in the test with SK-MEL-28; 36.1 µM (inactive) in the test on SF-539; > 100 µM (inactive) with Malme-3M; > 100 µM (inactive) in the test with EKVX. Moreover, the GI50 is > 100 µM (inactive) in the test on NCI-H522; > 100 µM (inactive) in the test on UACC-62; > 100 µM (inactive) in the test on HCC 2998; > 100 µM (inactive) with NCI-H460; 74 µM (inactive) in the test with SN12C; > 100 µM (inactive) in the test on HL-60. In addition, the GI50 with DMS-273, in the test with SR, with NCI-H23, in the test with SNB-19 and in the test on SW-620 was > 100 µM (inactive) in each case.
With `CCn1c2ccccc2c2ccc3c(c21)C(=O)c1ccccc1C3=O`, the GI50 with HCT-15 was more than 100 µM; with SNB-75 it was > 100 µM (inactive); with SK-MEL-28 it was > 100 µM (inactive); in the test with SF-539, > 100 µM (inactive); in the test with Malme-3M, 81.1 µM (inactive); with EKVX it was 44.8 µM (inactive). Moreover, the GI50 with NCI-H522 was > 100 µM (inactive); with UACC-62, > 100 µM (inactive); in the test on HCC 2998 it was > 100 µM (inactive); in the test with SN12C it was > 100 µM (inactive); in the test with HL-60 it was 36.8 µM (inactive); in the test on DMS-273 it was > 100 µM (inactive). Also, the GI50 in the test with SR was 10.4 µM (inactive); in the test on NCI-H23, > 100 µM (inactive); in the test with SNB-19 it was > 100 µM (inactive); with SW-620 it was > 100 µM (inactive).
With `NNC(=S)N/N=C(\CC1OC(=O)c2ccccc21)c1ccccc1O` (stereo unspecified), the GI50 in the test with HCT-15 was 55.8 µM; with SNB-75, 42.6 µM (inactive); with SK-MEL-28 it was 57.1 µM (inactive); in the test with SF-539, 19.5 µM (inactive); in the test on Malme-3M it was 30.4 µM (inactive); in the test on EKVX, 78.7 µM (inactive). Besides, the GI50 is 22.8 µM (inactive) in the test with NCI-H522; 35.5 µM (inactive) in the test with UACC-62; 32.7 µM (inactive) in the test on HCC 2998; 40.8 µM (inactive) in the test with NCI-H460; 46.8 µM (inactive) in the test with SN12C; 24.4 µM (inactive) with HL-60. In addition, the GI50 with DMS-273 was 50.9 µM (inactive); with SR, 16.3 µM (inactive); with NCI-H23 it was 49.9 µM (inactive); in the test with SNB-19 it was 32.4 µM (inactive); in the test on SW-620, 55.7 µM (inactive).
In the case of `C/C=C/COC(=O)CO[N+](=O)[O-]`, the 50% growth inhibitory concentration (GI50) is more than 100 µM in the test on HCT-15; > 100 µM (inactive) with SNB-75; > 100 µM (inactive) in the test with SF-539; > 100 µM (inactive) with Malme-3M; > 100 µM (inactive) in the test with EKVX; > 100 µM (inactive) in the test on NCI-H522. For the same molecule, the GI50 with UACC-62 is > 10 µM (inactive); with HCC 2998, > 100 µM (inactive); in the test on NCI-H460, > 100 µM (inactive); in the test on SN12C it was > 100 µM (inactive); in the test with HL-60, > 100 µM (inactive); in the test with DMS-273, > 100 µM (inactive). The GI50 with SR, with NCI-H23, in the test with SNB-19 and in the test on SW-620 was > 100 µM (inactive) in each case.
On to `CCCCCCCCOC(=O)c1cc([N+](=O)[O-])c(Sc2[nH]cnc3ncnc2-3)c([N+](=O)[O-])c1`, for which the GI50 with HCT-15 is 2.23 µM; with SNB-75, 2.47 µM (inactive); with SK-MEL-28 it was 19.1 µM (inactive); with SF-539, 2 µM (inactive); in the test on Malme-3M, 3.61 µM (inactive); with EKVX, 8.71 µM (inactive). Also, the GI50 with NCI-H522 is 1.05 µM (active); with UACC-62, 2.9 µM (inactive); with HCC 2998, 3.66 µM (inactive); with MDA-N, 1.35 µM (inactive); in the test with BT-549 it was 2.95 µM (inactive); in the test on NCI-H460, 3.4 µM (inactive). Moreover, the GI50 in the test with SN12C was 2.33 µM (inactive); in the test with HL-60, 1.52 µM (inactive); in the test on DMS-273, 0.425 µM (active); in the test with PC-3 it was 3.21 µM (inactive); in the test on SR, 1.1 µM (active); in the test on NCI-H23 it was 2.45 µM (inactive). In addition, the figures for the GI50 with SNB-19 and in the test on SW-620 were 18.1 µM (inactive) and 1.76 µM (inactive), respectively.
